Read-outs that look alike come from different tables or passages of the source.
Key:
Type in all cases: in vivo
Zymoseptoria tritici = experiment: Fungicidal activity: leaf blotch of wheat (SEPTTR), disease control on wheat seedlings; settings: LV activity at 121.5 g/H, wheat (variety Yuma)
Protocol: (§1) Technical grades of materials were dissolved in acetone, which were then mixed with nine volumes of water (H2O) containing 110 ppm Triton X-100. The fungicide solutions were applied onto wheat seedlings using an automated booth sprayer to run-off. All sprayed plants were allowed to air dry prior to further handling. All fungicides were evaluated using the aforementioned method for their activity vs. all target diseases, unless stated otherwise. Wheat leaf blotch and brown rust activity were also evaluated using track spray applications, in which case the fungicides were formulated as EC formulations, containing 0.1% Trycol 5941 in the spray solutions. Wheat plants (variety Yuma) were grown from seed in a greenhouse in 50% mineral soil/50% soil-less Metro mix until the first leaf was fully emerged, with 7-10 seedlings per pot. These plants were inoculated with an aqueous spore suspension of Zymoseptoria tritici either prior to or after fungicide treatments. After inoculation the plants were kept in 100% relative humidity (one day in a dark dew chamber followed by two to three days in a lighted dew chamber at 20° C.) to permit spores to germinate and infect the leaf. The plants were then transferred to a greenhouse set at 20° C. for disease to develop. When disease symptoms were fully expressed on the 1st leaves of untreated plants, infection levels were assessed on a scale of 0 to 100 percent disease severity. Percent disease control was calculated using the ratio of disease severity on treated plants relative to untreated plants.

Puccinia triticina = experiment: Fungicidal activity: wheat brown rust (PUCCRT), disease control on wheat seedlings; settings: LV activity at 121.5 g/H, wheat (variety Yuma)
Protocol: as §1, with “plants. Wheat plants (variety Yuma) were grown from seed in a greenhouse in 50% mineral soil/50% soil-less Metro mix until the first leaf was fully emerged, with 7-10 seedlings per pot. These plants were inoculated with an aqueous spore suspension of Puccinia triticina either prior to or after fungicide treatments. After inoculation the plants were kept in a dark dew room at 22° C. with 100% relative humidity overnight to permit spores to germinate and infect the leaf. The plants were then transferred to a greenhouse set at 24° C. for disease to develop. Fungicide formulation, application and disease assessment followed the procedures as described in the Example A. Results of the evaluations are shown below in Table 4.” for “plants.”

Phakopsora pachyrhizi = experiment: Fungicidal activity: Asian soybean rust (PHAKPA), disease control on soybean seedlings; settings: soybean (variety Williams 82)
Protocol: Technical grades of materials were dissolved in acetone, which were then mixed with nine volumes of H2O containing 0.011% Tween 20. The fungicide solutions were applied onto soybean seedlings using an automated booth sprayer to run-off. All sprayed plants were allowed to air dry prior to further handling. Soybean plants (variety Williams 82) were grown in soil-less Metro mix, with one plant per pot. Two week old seedlings were used for testing. Plants were inoculated either 3 days prior to or 1 day after fungicide treatments. Plants were incubated for 24 h in a dark dew room at 22° C. and 100% relative humidity then transferred to a growth room at 23° C. for disease to develop. Disease severity was assessed on the sprayed leaves.

[1] = 24 h, 1 Day Protectant, read-out: SEPTTR 1DP disease control rating
[2] = 72 h, 3 Day Curative, read-out: SEPTTR 3DC disease control rating
[3] = 24 h, 1 Day Protectant, read-out: PUCCRT 1DP disease control rating
[4] = 72 h, 3 Day Curative, read-out: PUCCRT 3DC disease control rating
[5] = 24 h, 1 Day Protectant, read-out: PHAKPA 1DP disease control rating
[6] = 72 h, 3 Day Curative, read-out: PHAKPA 3DC disease control rating

Compound | pest or weed control at 121.5 g/ha (Zymoseptoria tritici; [1]) | pest or weed control at 121.5 g/ha (Zymoseptoria tritici; [2]) | pest or weed control at 121.5 g/ha (Puccinia triticina; [3]) | pest or weed control at 121.5 g/ha (Puccinia triticina; [4]) | pest or weed control at 25 ppm (Phakopsora pachyrhizi; [5]) | pest or weed control at 25 ppm (Phakopsora pachyrhizi; [6])
COc1ccnc2c(=O)n([C@@H](C)C(=O)O[C@@H](C)[C@H](c3ccc(F)cc3)c3ccc(F)cc3C)c(=O)oc12 [Compound 11] | > 80% | > 80% | ≤ 80% | – | – | –
COc1ccnc2c(=O)n([C@@H](C)C(=O)O[C@@H](C)C(c3ccc(F)cc3F)c3ccc(F)cc3F)c(=O)oc12 [Compound 2] | > 80% | > 80% | > 80% | ≤ 80% | – | –
COc1ccnc2c(=O)n([C@@H](C)C(=O)O[C@@H](C)[C@H](Oc3ccccc3)C(C)(C)C)c(=O)oc12 [Compound 4] | – | ≤ 80% | > 80% | > 80% | – | –
CCC[C@@H](Oc1cccc(OC)c1)[C@H](C)OC(=O)[C@H](C)n1c(=O)oc2c(OC)ccnc2c1=O [Compound 10] | – | > 80% | > 80% | > 80% | – | –
CCC(CC)[C@@H](Oc1ccc(Cl)cc1)[C@H](C)OC(=O)[C@H](C)n1c(=O)oc2c(OC)ccnc2c1=O [Compound 5] | > 80% | ≤ 80% | > 80% | ≤ 80% | – | –
COc1ccnc2c(=O)n([C@@H](C)C(=O)O[C@@H](C)[C@H](c3ccccc3)c3ccc(C)cc3F)c(=O)oc12 [Compound 17] | > 80% | > 80% | > 80% | – | – | –
CCC[C@@H](Oc1ccc(C)cc1)[C@H](C)OC(=O)[C@H](C)n1c(=O)oc2c(OC)ccnc2c1=O [Compound 31] | – | ≤ 80% | > 80% | ≤ 80% | ≤ 80% | ≤ 80%
COc1cc(F)ccc1[C@@H](c1ccc(F)c(C)c1)[C@H](C)OC(=O)[C@H](C)n1c(=O)oc2c(OC)ccnc2c1=O [Compound 7] | > 80% | > 80% | > 80% | – | – | –
COc1ccnc2c(=O)n([C@@H](C)C(=O)O[C@@H](C)[C@H](Oc3ccccc3)c3ccc(F)cc3Cl)c(=O)oc12 [Compound 15] | > 80% | > 80% | > 80% | ≤ 80% | – | –
CCC(CC)[C@@H](Oc1ccccc1Cl)[C@H](C)OC(=O)[C@H](C)n1c(=O)oc2c(OC)ccnc2c1=O [Compound 16] | ≤ 80% | > 80% | > 80% | ≤ 80% | – | –
COc1ccnc2c(=O)n([C@@H](C)C(=O)O[C@@H](C)[C@H](Oc3cccc(F)c3)C(C)C)c(=O)oc12 [Compound 24] | ≤ 80% | > 80% | > 80% | > 80% | > 80% | ≤ 80%
COc1ccnc2c(=O)n([C@@H](C)C(=O)O[C@@H](C)[C@@H](c3ccc(C)cc3)c3ccc(F)cc3C)c(=O)oc12 [Compound 33] | > 80% | > 80% | > 80% | ≤ 80% | > 80% | ≤ 80%
COc1cc(Cl)ccc1C(c1ccc(Cl)cc1OC)[C@H](C)OC(=O)[C@H](C)n1c(=O)oc2c(OC)ccnc2c1=O [Compound 26] | > 80% | > 80% | > 80% | – | ≤ 80% | –
CCC[C@H](OC(=O)[C@H](C)n1c(=O)oc2c(OC)ccnc2c1=O)[C@@H](C)Oc1ccccc1 [Compound 35] | – | ≤ 80% | – | – | – | ≤ 80%
COc1ccnc2c(=O)n([C@@H](C)C(=O)O[C@@H](C)C(c3cccc(F)c3)c3cccc(F)c3)c(=O)oc12 [Compound 14] | > 80% | > 80% | ≤ 80% | ≤ 80% | – | –
COc1ccnc2c(=O)n([C@@H](C)C(=O)O[C@@H](C)C(c3ccc(C)cc3)c3ccc(C)cc3)c(=O)oc12 [Compound 32, (S)-1,1-di-p-tolylpropan-2-yl-(S)-2-(8-methoxy-2,4-dioxo-2H-pyrido[2,3-e][1,3]oxazin-3(4H)-yl)propanoate] | > 80% | > 80% | > 80% | ≤ 80% | ≤ 80% | ≤ 80%
COc1cc(F)ccc1[C@@H](c1ccc(F)cc1)[C@H](C)OC(=O)[C@H](C)n1c(=O)oc2c(OC)ccnc2c1=O [Compound 20] | > 80% | > 80% | > 80% | ≤ 80% | – | –
CCC(CC)[C@@H](Oc1cccc(Cl)c1)[C@H](C)OC(=O)[C@H](C)n1c(=O)oc2c(OC)ccnc2c1=O [Compound 9] | ≤ 80% | ≤ 80% | > 80% | ≤ 80% | – | –
CC[C@H](OC(=O)[C@H](C)n1c(=O)oc2c(OC)ccnc2c1=O)[C@@H](C)Oc1ccccc1 [Compound 6] | – | ≤ 80% | – | ≤ 80% | – | –
COc1ccnc2c(=O)n([C@@H](C)C(=O)O[C@@H](C)[C@@H](c3ccccc3)c3ccc(C(F)(F)F)cc3)c(=O)oc12 [Compound 28] | > 80% | > 80% | ≤ 80% | ≤ 80% | – | ≤ 80%
COc1ccnc2c(=O)n([C@H](C)C(=O)O[C@H](C)C(c3ccc(F)cc3)c3ccc(F)cc3)c(=O)oc12 [Compound 34] | – | – | – | – | ≤ 80% | ≤ 80%
CCCCC[C@H](OC(=O)[C@H](C)n1c(=O)oc2c(OC)ccnc2c1=O)[C@@H](C)Oc1ccccc1 [Compound 13] | ≤ 80% | ≤ 80% | – | – | – | ≤ 80%
COc1ccnc2c(=O)n([C@@H](C)C(=O)O[C@@H](C)[C@H](Oc3ccccc3Cl)c3ccccc3)c(=O)oc12 [Compound 21] | > 80% | ≤ 80% | > 80% | – | – | ≤ 80%
COc1ccc(C(c2ccc(OC)cc2OC)[C@H](C)OC(=O)[C@H](C)n2c(=O)oc3c(OC)ccnc3c2=O)c(OC)c1 [Compound 8] | > 80% | > 80% | ≤ 80% | ≤ 80% | – | –
COc1ccnc2c(=O)n([C@@H](C)C(=O)O[C@H](C)C(c3ccc(F)cc3)c3ccc(F)cc3)c(=O)oc12 [Compound 29] | – | ≤ 80% | – | – | – | ≤ 80%
